Measured values reported in patent publication US10106532B2, “Inhibitors of beta-hydroxylase for treatment of cancer” (MIDWESTERN UNIVERSITY, priority 2012, dated 2018).
Entries after “also recorded” stand apart in the source; their conditions may differ.

Key:
NIH-3T3 cells = experiment: MTT assay (cell proliferation, metabolic activity); type: cell-based, mouse
Experimental: (§1) A MTT assay was performed to evaluate the effect of MO-1-1100 on cell proliferation and viability. MTT is reduced to purple formazan in living cells. FOCUS cells were used as a high ASPH expressing human HCC cell line. […] The MTT assay measures cellular metabolic activity via NAD(P)H-dependent cellular oxidoreductase enzymes. […] In order to evaluate the effect of long-term exposure of MO-1-1100, the colony formation assay (an assay of malignant potential and phenotype) in which cells were treated with inhibitor for 3 weeks was performed.

FOCUS cells [1] = experiment: anchorage independent growth in soft agar; type: cell-based, human; conditions: 3 weeks of culture
Experimental: The effect of MO-1-1100 on anchorage independent growth in soft agar was evaluated. The ability of forming colonosphere in soft agar is considered to be a rigid test for tumorigenic potential. ASPH expression results in cells acquiring the ability to form colonospheres in soft agar. […] In order to evaluate the effect of ASPH inhibitor for anchorage independent colony formation, FOCUS cells were incubated in soft agar with or without this ASPH enzymatic inhibitor. After 3 weeks incubation, MO-1-1100 reduced colonosphere formation of FOCUS cells (FIG. 9A). […] This assay is a standard method to monitor malignant growth that reflects the ability to form tumors that grow aggressively in vivo.

[2] = test system: HPAFH AsPC-1 human PC cell line; experiment: subcutaneous pancreatic cancer tumor growth in nude mice; type: in vivo
Experimental: FIG. 4A is a line graph showing tumor volume, and FIG. 4B is a bar graph showing tomor weight. […] There were 15 nude mice in each group. i.p. injection (20 mg/kg/mouse). Vertical bars; standard error.
The HPAFH AsPC-1 human PC cell line which expresses a high level of ASPH was implanted (5×10^6 cells s.c.) into the back of nude mice. Tumors were allowed to grow to approximately 100 mm^3 after one week, and MO-1-1100 was then administered intraperitoneal (i.p.) at a concentration of 50 mg/kg. The treatment regimen as shown in FIGS. 4A-B included i.p. injections on a daily basis for five days followed by every other day until the experiment was terminated due to the large size of tumors observed in the control group that received a DMSO vehicle injection. […] There were 15 nude mice in each group (control vs. treatment).

Hep3B = experiment: cell viability; type: cell-based, human; conditions: 5 μM
FOCUS cells [3] = experiment: directional motility, Boyden chamber-type culture inserts; type: cell-based, human; conditions: 5 μM pretreatment for 24 hours, migration 30 min
Experimental: The β-hydroxylase activity is required for ASPH to mediate its effects on cell motility. Directional motility was measured using Boyden chamber-type culture inserts equipped with porous membranes. FOCUS cells were pretreated with 5 μM of MO-1-1100 and MO-1-500 β-hydroxylase inhibitor for 24 hours, and then placed into the upper chamber. Migration was allowed to proceed for 30 min. ATPLite was used to quantify viable cell density. The cells in the upper well and upper surface of membrane reflects the number of non-migrating cells, luminescence measured at the bottom surface of the membrane reflects the number of migrating and non-adherent cells and luminescence measured in the bottom well was reflect migrating and non-adherent cells. […] Cell invasiveness was assessed by invasion assay using matrigel coated membrane, in which cells were allowed to proceed for 6 hours; those found adhered on the bottom surface of membrane were regarded as invading cells.

FOCUS cells [4] = experiment: MTT assay (cell proliferation, metabolic activity); type: cell-based, human; conditions: 24 hours
Experimental: as §1

[5] = test system: human HCC cell line FOCUS; experiment: subcutaneous xenograft of human hepatocellular carcinoma; type: in vivo, mouse; conditions: 20 mg/kg per day
Experimental: The human HCC cell line FOCUS is known to be a highly aggressive tumor forming cell line in vivo. To investigate in vivo anti-tumor efficacy of the ASPH inhibitor, MO-1-1100 at 20 mg/kg per day was administered on 5 consecutive days for 2 weeks and every other day thereafter. […] Such findings indicate that any ASPH expressing human tumor are responsive to these specific β-hydroxylase inhibitors. These ASPH inhibitor compounds represent a class of anti-tumor agents that has substantial anti-tumor activity against a large number of solid human tumors known to have a dismal prognosis.

ASPH = target: T1, ASPH (Homo sapiens, UniProt Q12797); experiment: binding to ASPH by isothermal titration calorimetry
T1 sequence (Q12797 1-758): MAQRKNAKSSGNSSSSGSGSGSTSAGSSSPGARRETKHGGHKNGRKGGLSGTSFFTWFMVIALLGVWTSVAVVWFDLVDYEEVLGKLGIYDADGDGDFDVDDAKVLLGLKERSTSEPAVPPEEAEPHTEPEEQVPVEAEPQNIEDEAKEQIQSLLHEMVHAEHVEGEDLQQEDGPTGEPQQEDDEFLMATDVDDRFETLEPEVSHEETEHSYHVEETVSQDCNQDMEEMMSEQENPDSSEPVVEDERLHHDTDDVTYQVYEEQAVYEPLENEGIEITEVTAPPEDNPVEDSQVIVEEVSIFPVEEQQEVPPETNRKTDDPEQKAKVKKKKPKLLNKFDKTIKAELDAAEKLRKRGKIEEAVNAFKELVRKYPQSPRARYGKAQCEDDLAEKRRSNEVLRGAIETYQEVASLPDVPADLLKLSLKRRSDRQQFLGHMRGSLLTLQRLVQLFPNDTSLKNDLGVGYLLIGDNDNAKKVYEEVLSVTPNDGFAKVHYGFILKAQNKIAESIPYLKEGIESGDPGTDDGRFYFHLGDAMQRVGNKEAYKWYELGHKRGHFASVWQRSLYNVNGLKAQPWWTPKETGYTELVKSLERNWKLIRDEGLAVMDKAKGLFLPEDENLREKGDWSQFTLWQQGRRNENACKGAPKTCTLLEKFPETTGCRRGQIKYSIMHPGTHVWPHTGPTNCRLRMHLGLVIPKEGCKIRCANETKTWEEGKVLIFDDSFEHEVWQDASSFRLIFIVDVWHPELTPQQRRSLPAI
Source text: In the second step arylhydroxytetronimide was sulfonylated with phenylmethansulfonyl chloride in dry tetrahydrofuran to yield compounds of formula 1 (shown below). Compounds were characterized by 1H and 13C nuclear magnetic resonance, high resolution mass spectroscopy, high performance liquid chromatography, infra-red spectroscopy, melting point, elemental analysis and binding to ASPH by isothermal titration calorimetry.
Candidate parent compounds were selected as inhibitors for β-hydroxylase activity based on crystal structure of the catalytic site in the C-terminal region of ASPH and computer assisted drug design.

For NC1=C(OS(=O)(=O)Cc2ccccc2)C(=O)C(c2ccc(Cl)cc2)O1 (racemic) [MO-1-1100], the “specificity for the β-hydroxylase activity of ASPH” value (NIH-3T3 cells; FOCUS (express ASPH) versus NIH-3T3 (do not express ASPH)) was “highly specific; also recorded: more highly specific”, the “OD value of MTT” value (NIH-3T3 cells; NIH-3T3 cells not expressing ASPH) was “no effect; also recorded: resistant” and the “number and size of colonies in soft agar” value (FOCUS cells [1]) was “dose-dependent and highly significant reduction; also recorded: reduces”. The “HPAFH tumor formation, growth rate” value ([2]; i.p. 50 mg/kg, daily for five days followed by every other day) was “substantial inhibition”, the “PC tumor growth (tumor volume, tumor weight)” value ([2]; i.p. injection (20 mg/kg/mouse), FIG. 4 legend) was “anti-tumor effect” and the “cell viability, inhibition rate” value (Hep3B) was 60%. For the same compound, the “cell migration / motility” value (FOCUS cells [3]) was “significantly inhibited”, the “migrating and adherent cells” value (FOCUS cells [3]) was “significantly reduced” and the “population of non-adherent cells” value (FOCUS cells [3]) was “unchanged”. For the same compound, the total migrated cells (FOCUS cells [3]) was “reduced”, the “OD (optical density) value, MTT” value (FOCUS cells [4]) was “dose-dependently decreased” and the “signs of wasting or other adverse effects relative to control mice” value [5] was “None of the MO-1-1100 treated mice showed signs”. The tolerability [5] was “tolerated well”, the “HCC subcutaneous xenograft growth” value ([5]; 5 consecutive days for 2 weeks and every other day thereafter) was “significantly reduced; also recorded: strikingly reduces” and the “tumor volumes reduced, average, compared to control mice” value ([5]; day 12 following treatment) was 31.7%. The ASPH binding (ASPH) was “confirmed to demonstrate ASPH binding”.
